Experimental data: patent US9540323B2 (BRISTOL-MYERS SQUIBB COMPANY, priority 2012, dated 2017)

Columns and labels:
[1] = tested on: human platelet rich plasma (PRP); experiment: ADP induced platelet aggregation assay; conditions: Homo sapiens, Platelet, 5 min, read-out: PA IC50 (μM) @ 10 μM ADP, human PRP, 10 μM ADP, AUC at 5 minute
[2] = target: cloned human P2Y1 receptors (Homo sapiens (Human), UniProt P47900); experiment: Binding Assay B - Scintillation Proximity Assay (SPA) for P2Y1 binding, [33P] 2MeS-ADP; conditions: SPA, 0.3 nM [33P] 2MeS-ADP, Cheng-Prusoff; read-out: P2Y1 Ki (nM) using binding assay B
Method: Binding Assay B—Scintillation Proximity Assay (SPA) for P2Y1 Binding
A SPA membrane binding assay was used to identify inhibitors of [^33P] […] Reactions were allowed to proceed to completion at room temperature for 1 hour followed by centrifugation of the plate for 5 min. About 40 μL of the aqueous solution was aspirated. Plates were sealed and the [^33P]

Chain of cloned human P2Y1 receptors (P47900 whole entry): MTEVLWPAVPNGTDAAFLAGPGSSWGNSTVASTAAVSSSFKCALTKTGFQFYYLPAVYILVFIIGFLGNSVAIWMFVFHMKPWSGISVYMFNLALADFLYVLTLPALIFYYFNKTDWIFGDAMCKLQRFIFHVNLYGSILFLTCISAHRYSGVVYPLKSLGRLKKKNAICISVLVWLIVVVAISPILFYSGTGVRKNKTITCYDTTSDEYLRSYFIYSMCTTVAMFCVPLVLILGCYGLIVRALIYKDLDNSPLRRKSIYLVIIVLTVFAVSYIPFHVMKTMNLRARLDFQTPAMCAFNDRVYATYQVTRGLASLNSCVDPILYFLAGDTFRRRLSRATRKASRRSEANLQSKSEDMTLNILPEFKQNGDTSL

CC1(C)CN(c2cccc(F)c2NC(=O)Nc2ccc(F)cc2F)c2c(O)ccc(C(F)(F)F)c21 [Example 61, 1-(2,4-Difluorophenyl)-3-(2-fluoro-6-(7-hydroxy-3,3-dimethyl-4-(trifluoromethyl)indolin-1-yl)phenyl)urea]
IC50 [1]: 0.54 µM | Ki [2]: 5.2 nM

CC1(C)CN(c2c(F)cccc2NC(=O)Nc2ccc(F)cc2F)c2c(O)ccc(C(F)(F)F)c21 [Example 62, 1-(2,4-Difluorophenyl)-3-(3-fluoro-2-(7-hydroxy-3,3-dimethyl-4-(trifluoromethyl)indolin-1-yl)phenyl)urea]
IC50 [1]: 0.75 µM | Ki [2]: 14.6 nM

CC1(C)CN(c2ccc(F)cc2NC(=O)Nc2nc3ccc(F)cc3s2)c2c(O)ccc(C(F)(F)F)c21 [Example 63, 1-(5-Fluoro-2-(7-hydroxy-3,3-dimethyl-4-(trifluoromethyl)indolin-1-yl)phenyl)-3-(6-fluorobenzo[d]thiazol-2-yl)urea]
IC50 [1]: 0.18 µM | Ki [2]: 20.8 nM

CC1(C)CN(c2cc(F)ccc2NC(=O)Nc2nc3ccc(F)cc3s2)c2c(O)ccc(C(F)(F)F)c21 [Example 64, 1-(4-Fluoro-2-(7-hydroxy-3,3-dimethyl-4-(trifluoromethyl)indolin-1-yl)phenyl)-3-(6-fluorobenzo[d]thiazol-2-yl)urea]
IC50 [1]: 0.21 µM | Ki [2]: 13 nM

CC1(C)CN(c2ccccc2NC(=O)Nc2ccc(OC(F)(F)F)cc2)c2c(O)c(F)cc(Cl)c21 [Example 65, 1-(2-(4-Chloro-6-fluoro-7-hydroxy-3,3-dimethylindolin-1-yl)phenyl)-3-(4-(trifluoromethoxy)phenyl)urea]
IC50 [1]: 0.83 µM | Ki [2]: 14.1 nM

CC1(C)CN(c2ccccc2NC(=O)Nc2nc3ccc(Cl)cc3s2)c2c(O)c(F)cc(Br)c21 [Example 66, 1-(2-(4-Bromo-6-fluoro-7-hydroxy-3,3-dimethylindolin-1-yl)phenyl)-3-(6-chlorobenzo[d]thiazol-2-yl)urea]
IC50 [1]: 0.75 µM | Ki [2]: 21.3 nM

CC1(C)CN(c2ccccc2NC(=O)Nc2nc3ccc(F)cc3s2)c2c(O)cc(F)c(Br)c21 [Example 67, 1-(2-(4-Bromo-5-fluoro-7-hydroxy-3,3-dimethylindolin-1-yl)phenyl)-3-(6-fluorobenzo[d]thiazol-2-yl)urea]
IC50 [1]: 0.77 µM | Ki [2]: 13.8 nM

CC1(C)CN(c2ccccc2NC(=O)Nc2csc(Cl)n2)c2c(O)cc(F)c(Br)c21 [Example 68, 1-(2-(4-Bromo-5-fluoro-7-hydroxy-3,3-dimethylindolin-1-yl)phenyl)-3-(2-chlorothiazol-4-yl)urea]
IC50 [1]: 0.6 µM | Ki [2]: 7.5 nM

CC1(C)CN(c2ccccc2NC(=O)Nc2ccc(OC(F)(F)F)cc2)c2c(O)c(F)cc(Br)c21 [Example 69, 1-(2-(4-Bromo-6-fluoro-7-hydroxy-3,3-dimethylindolin-1-yl)phenyl)-3-(4-(trifluoromethoxy)phenyl)urea]
IC50 [1]: 0.83 µM | Ki [2]: 18.1 nM

CC1(C)CN(c2ccccc2NC(=O)Nc2nc3ccc(Cl)cc3s2)c2c(O)cc(F)c(Br)c21 [Example 70, 1-(2-(4-Bromo-5-fluoro-7-hydroxy-3,3-dimethylindolin-1-yl)phenyl)-3-(6-chlorobenzo[d]thiazol-2-yl)urea]
IC50 [1]: 0.78 µM | Ki [2]: 31.3 nM

CCC1(CC)CN(c2ccccc2NC(=O)Nc2ccc(OC(F)(F)F)cc2)c2c(O)ccc(C)c21 [Example 71, 1-(2-(3,3-Diethyl-7-hydroxy-4-methylindolin-1-yl)phenyl)-3-(4-(trifluoromethoxy)phenyl)urea]
IC50 [1]: 0.5 µM | Ki [2]: 6.8 nM

CC(C)(C)Sc1ccc(O)c2c1C(C)(C)CN2c1ccccc1NC(=O)Nc1ccc(OC(F)(F)F)cc1 [Example 72, 1-(2-(4-(tert-Butylthio)-7-hydroxy-3,3-dimethylindolin-1-yl)phenyl)-3-(4-(trifluoromethoxy)phenyl)urea]
IC50 [1]: 1.05 µM | Ki [2]: 32.2 nM

CCC1(CC)CN(c2ccccc2NC(=O)Nc2ccc(OC(F)(F)F)cc2)c2c(O)ccc(C=O)c21 [Example 73, 1-(2-(3,3-Diethyl-4-formyl-7-hydroxyindolin-1-yl)phenyl)-3-(4-(trifluoromethoxy)phenyl)urea]
IC50 [1]: 0.9 µM | Ki [2]: 4.5 nM

CCOC(=O)C1(C)CN(c2ccccc2NC(=O)Nc2ccc(OC(F)(F)F)cc2)c2c(O)ccc(Cl)c21 (stereo not shown) [Example 74, Ethyl 4-chloro-7-hydroxy-3-methyl-1-(2-(3-(4-(trifluoromethoxy)phenyl)ureido)phenyl)indoline-3-carboxylate]
IC50 [1]: 3.11 µM | Ki [2]: 19.8 nM

CCOC(=O)C1(C)CN(c2ccccc2NC(=O)Nc2csc(Cl)n2)c2c(O)ccc(Cl)c21 (stereo not shown) [Example 75, Ethyl 4-chloro-1-(2-(3-(2-chlorothiazol-4-yl)ureido)phenyl)-7-hydroxy-3-methylindoline-3-carboxylate]
IC50 [1]: 0.56 µM | Ki [2]: 7.1 nM

CCOC(=O)C1(C)CN(c2ccccc2NC(=O)Nc2nc3ccc(F)cc3s2)c2c(O)ccc(Cl)c21 (stereo not shown) [Example 76, Ethyl 4-chloro-1-(2-(3-(6-fluorobenzo[d]thiazol-2-yl)ureido)phenyl)-7-hydroxy-3-methylindoline-3-carboxylate]
IC50 [1]: 0.4 µM | Ki [2]: 11.5 nM

CCOC(=O)C1(C)CN(c2ccccc2NC(=O)Nc2nc3ccc(Cl)nc3s2)c2c(O)ccc(Cl)c21 (stereo not shown) [Example 77, Ethyl 4-chloro-1-(2-(3-(5-chlorothiazolo[5,4-b]pyridin-2-yl)ureido)phenyl)-7-hydroxy-3-methylindoline-3-carboxylate]
IC50 [1]: 0.61 µM | Ki [2]: 12.9 nM

CC1(CC(F)(F)F)CN(c2ccccc2NC(=O)Nc2ccc(OC(F)(F)F)cc2)c2c(O)ccc(Cl)c21 (stereo not shown) [Example 78, 1-(2-(4-Chloro-7-hydroxy-3-methyl-3-(2,2,2-trifluoroethyl)indolin-1-yl)phenyl)-3-(4-(trifluoromethoxy)phenyl)urea]
IC50 [1]: 2.92 µM | Ki [2]: 7.7 nM

CC1(C)CN(c2ccccc2NC(=O)Nc2ccc(OC(F)(F)F)cc2)c2c(O)c(F)cc(CC(F)(F)F)c21 [Example 79, 1-(2-(6-Fluoro-7-hydroxy-3,3-dimethyl-4-(2,2,2-trifluoroethyl)indolin-1-yl)phenyl)-3-(4-(trifluoromethoxy)phenyl)urea]
IC50 [1]: 0.83 µM | Ki [2]: 9.7 nM

COC(=O)c1ccc(O)c2c1C(C)(C)CN2c1ccccc1NC(=O)Nc1ccc(OC(F)(F)F)cc1 [Example 80, Methyl 7-hydroxy-3,3-dimethyl-1-(2-(3-(4-(trifluoromethoxy)phenyl)ureido)phenyl)indoline-4-carboxylate]
IC50 [1]: 0.84 µM | Ki [2]: 9 nM

CCOC(=O)c1ccc(O)c2c1C(C)(C)CN2c1ccccc1NC(=O)Nc1ccc(OC(F)(F)F)cc1 [Example 81, Ethyl 7-hydroxy-3,3-dimethyl-1-(2-(3-(4-(trifluoromethoxy)-phenyl)-ureido)phenyl)indoline-4-carboxylate]
IC50 [1]: 0.91 µM | Ki [2]: 8.6 nM

CC1(C)CN(c2ccccc2NC(=O)Nc2ccc(OC(F)(F)F)cc2)c2c(O)ccc(-c3nc4ccccc4o3)c21 [Example 82, 1-(2-(4-(Benzo[d]oxazol-2-yl)-7-hydroxy-3,3-dimethylindolin-1-yl)phenyl)-3-(4-(trifluoromethoxy)phenyl)urea]
IC50 [1]: 0.99 µM | Ki [2]: 15.8 nM

CC1(C)CN(c2ccccc2NC(=O)Nc2ccc(OC(F)(F)F)cc2)c2c(O)ccc(-c3nc4ccccc4s3)c21 [Example 83]
IC50 [1]: 0.86 µM | Ki [2]: 14.7 nM
